Read-outs that look alike come from different tables or passages of the source.
Legend:
Menin-MLL = biological target: T1, Menin-MLL (Homo sapiens, UniProt O00255); test: Inhibitory activity against Menin-MLL binding (fluorescence polarization); conditions: 150 nM His-Menin, 15 nM FITC-MLL, 25°C for 60 min
T1 construct: His-Menin (M1-L615 end); purchased BIORTUS BP9210
T1 sequence (O00255 1-615 isoform O00255-1): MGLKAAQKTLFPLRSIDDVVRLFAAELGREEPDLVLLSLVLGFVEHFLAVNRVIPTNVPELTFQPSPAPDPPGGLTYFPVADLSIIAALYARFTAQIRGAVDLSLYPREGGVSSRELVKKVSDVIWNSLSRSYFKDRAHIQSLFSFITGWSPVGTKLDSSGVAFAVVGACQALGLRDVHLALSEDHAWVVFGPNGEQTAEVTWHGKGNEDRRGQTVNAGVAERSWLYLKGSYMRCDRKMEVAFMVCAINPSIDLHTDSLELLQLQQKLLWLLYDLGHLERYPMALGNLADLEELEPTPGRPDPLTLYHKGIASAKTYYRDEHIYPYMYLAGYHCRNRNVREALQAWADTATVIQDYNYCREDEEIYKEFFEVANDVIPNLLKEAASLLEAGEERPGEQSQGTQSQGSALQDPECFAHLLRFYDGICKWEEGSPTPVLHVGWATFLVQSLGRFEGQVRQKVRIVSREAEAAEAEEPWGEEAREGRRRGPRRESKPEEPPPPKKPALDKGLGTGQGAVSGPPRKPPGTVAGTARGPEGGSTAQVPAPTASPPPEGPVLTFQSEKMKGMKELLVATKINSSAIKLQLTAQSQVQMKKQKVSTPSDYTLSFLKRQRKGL
Method in brief: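 Fluorescence polarization competition: compound and 150 nM His-tagged menin (residues M1-L615) sit 15 min at 25 °C in pH 7.5 HEPES buffer with NaCl, DTT and BSA; 15 nM FITC-labelled MLL peptide then binds for 60 min. IC50 fitted sigmoidally from mP values, duplicate wells.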

MEIS1 gene expression [1] = test: Inhibition of MEIS1 gene expression in human tumor cells (qRT-PCR), MV-4-11; format: cell-based; conditions: MV4-11, MV-4-11 (carrying MLL-AF4), 48 hours of incubation, relative MEIS1 gene expression vs GAPDH, read-out: MV-4-11 MEISI EC50
Description: (§1) Experimental Example 3: Evaluation of Inhibitory Activity of Compounds Against MEISI Gene Expression in Human Tumor Cells
(§2) The effect of test samples on MEIS1 gene expression in vitro cultured human leukemia cells MV-4-11 (carrying MLL-AF4), MOLM-13 (carrying MLL-AF9), and OCI-AML3 (carrying NPM1c) was studied.
(§3) • Human acute lymphoblastic leukemia cells MV-4-11, purchased from American Type Culture Collection, Catalog Number: CRL-9591; • Human acute myeloid leukemia cells MOLM-13, purchased from COBIOER BIOSCIENCES CO., LTD, Catalog Number: CBP60678; • Human acute myeloid leukemia cells OCI-AML3, purchased from COBIOER BIOSCIENCES CO., LTD, Catalog Number: CBP60817; • MEIS1 Primer/Probe, purchased from IDT, Catalog Number: 40831613; and • GAPDH Primer/Probe, purchased from IDT, Catalog Number: 22214836.
(§4) MV-4-11 cells were cultured in an IMDM medium containing 10% fetal bovine serum, or MOLM-13 and OCI-AML3 cells were cultured in an RPMI-1640 medium containing 20% fetal bovine serum, each supplemented with 100 U·mL^-1 penicillin and 100 µg·mL^-1 streptomycin. These cells were cultured at 37°C with 5% CO2. The suspensions of individual cell lines were prepared in their respective media and seeded into 48-well plates at a density of 100,000 cells/well. On the day of the experiment, a compound stock solution was diluted in a 6-fold gradient using DMSO. Each gradient-diluted stock solution was then further diluted 250-fold with a complete medium to prepare a series of working solutions at different concentrations. Next, 250 µL of working solution (containing the complete medium with a 2-fold serial concentration of the test compound or a positive control compound, or containing a control complete medium) was added to each well. After 48 hours of incubation, cells from the 48-well plate were collected into 1 mL centrifuge tubes, centrifuged at 1000 rpm for 5 minutes, and the complete medium was removed. Cells were washed twice with 1 mL PBS and centrifuged to remove PBS. Total RNA was extracted using the RNeasy Mini Kit (250) (QIAGEN, 74106). The threshold cycle (Ct) value for gene expression was determined using the HiScript II U+ One Step qRT-PCR Probe Kit (Vazyme) (Vazyme, Q223-01), with 3 replicates per sample. The prepared reaction mixture was placed in an ABI 7500 real-time PCR instrument, and the reaction proceeded following the procedures below. [formula]
(§5) Next, for the relative MEIS1 gene expression, the concentration (EC50) that inhibits 50% of relative MEIS1 gene expression was calculated using GraphPad Prism 8 software.

MEIS1 gene expression [2] = test: Inhibition of MEIS1 gene expression in human tumor cells (qRT-PCR), MOLM-13; format: cell-based; conditions: MOLM-13 (carrying MLL-AF9), 48 hours of incubation, relative MEIS1 gene expression vs GAPDH
Description: as §1, §2, §3, §4, §5

[3] = system: MOLM-13 (carrying MLL-AF9); test: Inhibition of proliferation of human tumor cells (Alamar Blue, 7 days), MOLM-13; format: cell-based; conditions: Homo sapiens, 168 h, MOLM-13 cells (carrying MLL-AF9), method calls the value GI50
Method in brief: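 GI50 values reflect growth inhibition over 7 days, read by Alamar Blue. Seeding density was 4,000 cells/well except KG-1a (3,000 cells/well); each line grew in its own FBS-containing medium at 37°C.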

[4] = fluorescence polarization, read-out: Menin-MLL IC50

SMILES	IC50 (Menin-MLL; [4])	EC50 (MEIS1 gene expression [1])	EC50 (MEIS1 gene expression [2])	IC50 [3]	IC50 (Menin-MLL; Menin-MLL IC50, fluorescence polarization)
Cc1nc(F)c2c(-c3ccc(F)cc3C(=O)N3CCOC[C@H]3C)cc(C3CN([C@H](CCCN4CCN(C(=O)C5CC5)CC4)C(C)C)C3)cn12 [Example 341]	10 nM	26 nM	6 nM		
CCN(C(=O)c1cc(F)ccc1-c1cc(C2CN([C@H](CCCN3CCC[C@@H](O)C3)C(C)C)C2)cn2c(C)ncc12)C(C)C [Example 326]	2 nM	4.6 nM	5.5 nM		
CC(=O)N1CC2CC(C1)N2CCC[C@H](C(C)C)N1CC(c2cc(-c3ccc(F)cc3C(=O)N3CCOC[C@H]3C)c3c(F)nc(C)n3c2)C1 [Example 346]	3.8 nM	10 nM	5 nM	8.3 nM	
Cc1nc(F)c2c(-c3ccc(F)cc3C(=O)N3CCOC[C@H]3C)cc(C3CN([C@H](CCCN4CCN(C(=O)C(C)C)CC4)C(C)C)C3)cn12 [Example 338]	9 nM	27 nM	1.8 nM		
CC(=O)N1CCN(CCC[C@H](C(C)C)N2CC(c3cc(-c4ccc(F)cc4C(=O)N4CCOC[C@H]4C)c4c(F)nc(C)n4c3)C2)C[C@@H]1C [Example 331]	14 nM	63 nM	20.3 nM		
Cc1ncc2c(-c3ccc(F)cc3C(=O)N3CCOC[C@H]3C)cc(C3CN([C@H](CCCN4CCN(C5CC5)CC4)C(C)C)C3)cn12 [Example 325]		7.6 nM	4.2 nM		3.2 nM

— EP4782453A1 (Beyang Therapeutics Co., Ltd., priority 2023, dated 2025)
